Read-outs that look alike come from different tables or passages of the source. Starred links: 1 amine or outer side, 2 acyl side, 3 side chain; linkers in the order of their positions; H or OH if unused. Positions of bridges follow the written chain, without caps; N, C: chain ends. Non-standard residues stand in square brackets, D forms with d. Residues, ends and D or L forms follow the SMILES beside them. Groups on a side chain read outwards from the residue. *: point of attachment. X15 = NC(=O)[C@H](CCCCN*)NC(=O)COCCOCCNC(=O)COCCOCCNC(=O)CC[C@H](NC(=O)CC[C@H](NC(=O)CCCCCCCCCCCCCCCC(=O)O)C(=O)O)C(=O)O; X14 = NC(=O)[C@H](CCCCN*)NC(=O)COCCOCCNC(=O)COCCOCCNC(=O)CC[C@H](NC(=O)CC[C@H](NC(=O)CCCCCCCCCCCCCCC(=O)O)C(=O)O)C(=O)O; X11 = NC(=O)[C@H](CCCCN*)NC(=O)CC[C@H](NC(=O)CC[C@H](NC(=O)CCCCCCCCCCCCCCCC(=O)O)C(=O)O)C(=O)O; X20 = CC(=O)N[C@@H](CCC(=O)N[C@@H](CCC(=O)N[C@@H](CCCCN*)C(N)=O)C(=O)O)C(=O)O; Trp(1-CH2CO) = O=C([C@H](Cc1cn(CC(=O)[*:3])c2ccccc12)N[*:1])[*:2]; Trp(5-OMe) = COc1ccc2[nH]cc(C[C@H](N)C(=O)O)c2c1; Butanoyl(4-(4-I-phenyl)) = O=C(CCCc1ccc(I)cc1)*; Trp(5-OH) = N[C@@H](Cc1c[nH]c2ccc(O)cc12)C(=O)O; Phe(4-COOH) = N[C@@H](Cc1ccc(C(=O)O)cc1)C(=O)O; X7 = O=C(O)CN1CCC(N[*:1])(C(=O)[*:2])CC1; γGlu = O=C(O)[C@H](CCC(=O)[*:2])N[*:1]; Hexanoyl(6-Ph) = O=C(CCCCCc1ccccc1)*; X9 = O=C(CCCc1ccc(-c2ccccc2)cc1)*; NMeK = CN[C@@H](CCCCN)C(=O)O; Aib = CC(C)(N)C(=O)O
Biological target: T1, Recombinant human GhR-Fc protein (Homo sapiens, UniProt P10912)
T1 construct: purchased R&D Systems
Test: SPR binding assay (Biacore T200, single-cycle kinetics) of peptides against immobilized human GhR-Fc
Procedure, shortened: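 Human GhR-Fc amine-coupled to a CM5 chip at pH 4.0; running buffer HBS-EP with 1% DMSO. Peptides measured by single-cycle kinetics on Biacore T200, with solvent correction and baseline subtraction. KD calculated from fitted ka and kd.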

[1] = SPR, hGhR, Table 2 monocyclic peptides, KD calculated from ka and kd, read-out: KD
[2] = SPR, hGhR, Table 1 bicyclic peptides, KD calculated from ka and kd, read-out: KD

T1 sequence (P10912 with tags, fused parts or gaps limits assumed): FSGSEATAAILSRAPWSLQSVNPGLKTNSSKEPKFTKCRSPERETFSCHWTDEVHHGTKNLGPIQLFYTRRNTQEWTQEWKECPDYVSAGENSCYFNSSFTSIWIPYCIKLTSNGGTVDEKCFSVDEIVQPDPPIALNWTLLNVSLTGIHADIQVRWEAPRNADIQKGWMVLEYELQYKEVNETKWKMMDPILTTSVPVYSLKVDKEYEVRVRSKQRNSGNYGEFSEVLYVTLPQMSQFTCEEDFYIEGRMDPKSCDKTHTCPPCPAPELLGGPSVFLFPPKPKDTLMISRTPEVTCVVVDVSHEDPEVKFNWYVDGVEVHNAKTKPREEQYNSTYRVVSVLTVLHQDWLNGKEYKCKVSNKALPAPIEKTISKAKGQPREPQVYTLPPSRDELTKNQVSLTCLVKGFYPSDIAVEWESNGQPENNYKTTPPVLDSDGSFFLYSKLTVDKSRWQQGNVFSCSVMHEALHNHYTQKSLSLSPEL

Kd [1] [nM] | Kd [2] [nM] | SMILES | other results
4.13 | – | COc1ccc2[nH]cc(C[C@@H]3NC(=O)[C@H](CC(N)=O)NC(=O)[C@H](CO)NC(=O)[C@H](C(C)C)NC(=O)[C@H](C(C)C)NC(=O)[C@H](CCCCNC(=O)CC[C@H](NC(=O)CC[C@H](NC(=O)CCCc4ccc(I)cc4)C(=O)O)C(=O)O)N(C)C(=O)[C@H](Cc4ccc(O)cc4)NC(=O)CSC[C@@H](C(N)=O)NC(=O)[C@H](C(C)C)NC(=O)C4(CCN(CC(=O)O)CC4)NC(=O)[C@H](Cc4c[nH]c5ccc(O)cc45)NC(=O)[C@H](CCCCN)NC(=O)[C@H](Cc4ccc(C(=O)O)cc4)NC3=O)c2c1 [Compound 50] ({CH2CO}-Y[NMeK]([γGlu-γGlu-Butanoyl(4-(4-I-phenyl))])VVSN[Trp(5-OMe)][Phe(4-COOH)]K[Trp(5-OH)][X7]VC-NH2; thioether N-13) | –
7.57 | – | COc1ccc2[nH]cc(C[C@@H]3NC(=O)[C@H](CC(N)=O)NC(=O)[C@H](CO)NC(=O)[C@H](C(C)C)NC(=O)[C@H](C(C)C)NC(=O)[C@H](CCCCNC(=O)CC[C@H](NC(=O)CCCc4ccc(I)cc4)C(=O)O)N(C)C(=O)[C@H](Cc4ccc(O)cc4)NC(=O)CSC[C@@H](C(=O)NCC(=O)N4CCC[C@H]4C(=O)N[C@H](CO)C(=O)N[C@H](CO)C(=O)N[C@H](CO)C(N)=O)NC(=O)[C@H](C(C)C)NC(=O)C4(CCN(CC(=O)O)CC4)NC(=O)[C@H](Cc4c[nH]c5ccc(O)cc45)NC(=O)[C@H](CCCCN)NC(=O)[C@H](Cc4ccc(C(=O)O)cc4)NC3=O)c2c1 [Compound 51] ({CH2CO}-Y[NMeK]([γGlu-Butanoyl(4-(4-I-phenyl))])VVSN[Trp(5-OMe)][Phe(4-COOH)]K[Trp(5-OH)][X7]VCGP[dS][dS][dS]-NH2; thioether N-13) | –
2.08 | – | COc1ccc2[nH]cc(C[C@@H]3NC(=O)[C@H](CC(N)=O)NC(=O)[C@H](CO)NC(=O)[C@H](C(C)C)NC(=O)[C@H](C(C)C)NC(=O)[C@H](CCCCNC(=O)CC[C@H](NC(=O)CCCc4ccc(I)cc4)C(=O)O)N(C)C(=O)[C@H](Cc4ccc(O)cc4)NC(=O)CSC[C@@H](C(=O)NCC(=O)N4CCC[C@H]4C(=O)N[C@H](CO)C(=O)N[C@H](CO)C(=O)N[C@H](CO)C(N)=O)NC(=O)[C@H](C(C)C)NC(=O)C(C)(C)NC(=O)[C@H](Cc4c[nH]c5ccc(O)cc45)NC(=O)[C@H](CCCCN)NC(=O)[C@H](Cc4ccc(C(=O)O)cc4)NC3=O)c2c1 [Compound 54] ({CH2CO}-Y[NMeK]([γGlu-Butanoyl(4-(4-I-phenyl))])VVSN[Trp(5-OMe)][Phe(4-COOH)]K[Trp(5-OH)][Aib]VCGP[dS][dS][dS]-NH2; thioether N-13) | –
2.83 | – | COc1ccc2[nH]cc(C[C@@H]3NC(=O)[C@H](CC(N)=O)NC(=O)[C@H](CO)NC(=O)[C@H](C(C)C)NC(=O)[C@H](C(C)C)NC(=O)[C@H](CCCCNC(=O)CC[C@H](NC(=O)CC[C@H](NC(=O)CCCc4ccc(I)cc4)C(=O)O)C(=O)O)N(C)C(=O)[C@H](Cc4ccc(O)cc4)NC(=O)CSC[C@@H](C(=O)NCC(=O)N4CCC[C@H]4C(=O)N[C@H](CO)C(=O)N[C@H](CO)C(=O)N[C@H](CO)C(N)=O)NC(=O)[C@H](C(C)C)NC(=O)C(C)(C)NC(=O)[C@H](Cc4c[nH]c5ccc(O)cc45)NC(=O)[C@H](CCCCN)NC(=O)[C@H](Cc4ccc(C(=O)O)cc4)NC3=O)c2c1 [Compound 55] ({CH2CO}-Y[NMeK]([γGlu-γGlu-Butanoyl(4-(4-I-phenyl))])VVSN[Trp(5-OMe)][Phe(4-COOH)]K[Trp(5-OH)][Aib]VCGP[dS][dS][dS]-NH2; thioether N-13) | –
– | 2.53 | CC(C)[C@@H]1NC(=O)[C@H](C(C)C)NC(=O)[C@@H]2CCCCNC(=O)Cn3cc(c4ccccc43)C[C@H](NC(=O)[C@H](CC(N)=O)NC(=O)[C@H](CO)NC1=O)C(=O)N[C@@H](Cc1ccc(C(=O)O)cc1)C(=O)N[C@@H](CCCCN)C(=O)N[C@@H](Cc1c[nH]c3ccc(O)cc13)C(=O)NC(C)(C)C(=O)N[C@@H](C(C)C)C(=O)N[C@H](C(=O)NCCCC[C@H](NC(=O)CC[C@H](NC(=O)CC[C@H](NC(=O)CCCCCCCCCCCCCCCC(=O)O)C(=O)O)C(=O)O)C(N)=O)CSCC(=O)N[C@@H](Cc1ccc(C(=O)O)cc1)C(=O)N2C [Compound 61] ({CH2CO}-[Phe(4-COOH)][NMeK]VVSN[Trp(1-CH2CO)][Phe(4-COOH)]K[Trp(5-OH)][Aib]VC-X11; lactam 2-7; thioether N-13) | –
– | 3.61 | CC(C)[C@@H]1NC(=O)[C@H](C(C)C)NC(=O)[C@@H]2CCCCNC(=O)Cn3cc(c4ccccc43)C[C@H](NC(=O)[C@H](CC(N)=O)NC(=O)[C@H](CO)NC1=O)C(=O)N[C@@H](Cc1ccc(C(=O)O)cc1)C(=O)N[C@@H](CCCCN)C(=O)N[C@@H](Cc1c[nH]c3ccc(O)cc13)C(=O)NC(C)(C)C(=O)N[C@@H](C(C)C)C(=O)N[C@H](C(=O)NCCCC[C@H](NC(=O)COCCOCCNC(=O)COCCOCCNC(=O)CC[C@H](NC(=O)CC[C@H](NC(=O)CCCCCCCCCCCCCCC(=O)O)C(=O)O)C(=O)O)C(N)=O)CSCC(=O)N[C@@H](Cc1ccc(C(=O)O)cc1)C(=O)N2C [Compound 64] ({CH2CO}-[Phe(4-COOH)][NMeK]VVSN[Trp(1-CH2CO)][Phe(4-COOH)]K[Trp(5-OH)][Aib]VC-X14; lactam 2-7; thioether N-13) | –

The remaining lines, values behind:

SMILES | Kd [1] [nM] | Kd [2] [nM] | other results
COc1ccc2[nH]cc(C[C@@H]3NC(=O)[C@H](CC(N)=O)NC(=O)[C@H](CO)NC(=O)[C@H](C(C)C)NC(=O)[C@H](C(C)C)NC(=O)[C@H](CCCCNC(=O)CC[C@H](NC(=O)CC[C@H](NC(=O)CCCc4ccc(I)cc4)C(=O)O)C(=O)O)N(C)C(=O)[C@H](Cc4ccc(O)cc4)NC(=O)CSC[C@@H](C(N)=O)NC(=O)[C@H](C(C)C)NC(=O)C(C)(C)NC(=O)[C@H](Cc4c[nH]c5ccc(O)cc45)NC(=O)[C@H](CCCCN)NC(=O)[C@H](Cc4ccc(C(=O)O)cc4)NC3=O)c2c1 [Compound 53] ({CH2CO}-Y[NMeK]([γGlu-γGlu-Butanoyl(4-(4-I-phenyl))])VVSN[Trp(5-OMe)][Phe(4-COOH)]K[Trp(5-OH)][Aib]VC-NH2; thioether N-13) | 3.36 | – | –
COc1ccc2[nH]cc(C[C@@H]3NC(=O)[C@H](CC(N)=O)NC(=O)[C@H](CO)NC(=O)[C@H](C(C)C)NC(=O)[C@H](C(C)C)NC(=O)[C@H](CCCCNC(=O)CC[C@H](NC(=O)CCCc4ccc(-c5ccccc5)cc4)C(=O)O)N(C)C(=O)[C@H](Cc4ccc(O)cc4)NC(=O)CSC[C@@H](C(=O)NCC(=O)N4CCC[C@H]4C(=O)N[C@H](CO)C(=O)N[C@H](CO)C(=O)N[C@H](CO)C(N)=O)NC(=O)[C@H](C(C)C)NC(=O)C(C)(C)NC(=O)[C@H](Cc4c[nH]c5ccc(O)cc45)NC(=O)[C@H](CCCCN)NC(=O)[C@H](Cc4ccc(C(=O)O)cc4)NC3=O)c2c1 [Compound 56] ({CH2CO}-Y[NMeK]([γGlu-X9])VVSN[Trp(5-OMe)][Phe(4-COOH)]K[Trp(5-OH)][Aib]VCGP[dS][dS][dS]-NH2; thioether N-13) | – | – | Kd: 2.87 nM
COc1ccc2[nH]cc(C[C@@H]3NC(=O)[C@H](CC(N)=O)NC(=O)[C@H](CO)NC(=O)[C@H](C(C)C)NC(=O)[C@H](C(C)C)NC(=O)[C@H](CCCCNC(=O)CC[C@H](NC(=O)CCCCCc4ccccc4)C(=O)O)N(C)C(=O)[C@H](Cc4ccc(O)cc4)NC(=O)CSC[C@@H](C(=O)NCC(=O)N4CCC[C@H]4C(=O)N[C@H](CO)C(=O)N[C@H](CO)C(=O)N[C@H](CO)C(N)=O)NC(=O)[C@H](C(C)C)NC(=O)C(C)(C)NC(=O)[C@H](Cc4c[nH]c5ccc(O)cc45)NC(=O)[C@H](CCCCN)NC(=O)[C@H](Cc4ccc(C(=O)O)cc4)NC3=O)c2c1 [Compound 57] ({CH2CO}-Y[NMeK]([γGlu-Hexanoyl(6-Ph)])VVSN[Trp(5-OMe)][Phe(4-COOH)]K[Trp(5-OH)][Aib]VCGP[dS][dS][dS]-NH2; thioether N-13) | 1.25 | – | –
CC(=O)N[C@@H](CCC(=O)N[C@@H](CCC(=O)N[C@@H](CCCCNC(=O)[C@@H]1CSCC(=O)N[C@@H](Cc2ccc(C(=O)O)cc2)C(=O)N(C)[C@H]2CCCCNC(=O)Cn3cc(c4ccccc43)C[C@H](NC(=O)[C@H](CC(N)=O)NC(=O)[C@H](CO)NC(=O)[C@H](C(C)C)NC(=O)[C@H](C(C)C)NC2=O)C(=O)N[C@@H](Cc2ccc(C(=O)O)cc2)C(=O)N[C@@H](CCCCN)C(=O)N[C@@H](Cc2c[nH]c3ccc(O)cc23)C(=O)NC(C)(C)C(=O)N[C@@H](C(C)C)C(=O)N1)C(N)=O)C(=O)O)C(=O)O [Compound 58] ({CH2CO}-[Phe(4-COOH)][NMeK]VVSN[Trp(1-CH2CO)][Phe(4-COOH)]K[Trp(5-OH)][Aib]VC-X20; lactam 2-7; thioether N-13) | – | 3.51 | –
CC(C)[C@@H]1NC(=O)[C@H](C(C)C)NC(=O)[C@@H]2CCCCNC(=O)Cn3cc(c4ccccc43)C[C@H](NC(=O)[C@H](CC(N)=O)NC(=O)[C@H](CO)NC1=O)C(=O)N[C@@H](Cc1ccc(C(=O)O)cc1)C(=O)N[C@@H](CCCCN)C(=O)N[C@@H](Cc1c[nH]c3ccc(O)cc13)C(=O)NC(C)(C)C(=O)N[C@@H](C(C)C)C(=O)N[C@H](C(=O)NCCCC[C@H](NC(=O)COCCOCCNC(=O)COCCOCCNC(=O)CC[C@H](NC(=O)CC[C@H](NC(=O)CCCCCCCCCCCCCCCC(=O)O)C(=O)O)C(=O)O)C(N)=O)CSCC(=O)N[C@@H](Cc1ccc(C(=O)O)cc1)C(=O)N2C [Compound 65] ({CH2CO}-[Phe(4-COOH)][NMeK]VVSN[Trp(1-CH2CO)][Phe(4-COOH)]K[Trp(5-OH)][Aib]VC-X15; lactam 2-7; thioether N-13) | – | 3.33 | –

Reference: patent publication US12415834B2, “GhR-binding peptide and composition comprising same” (priority 2021, dated 2025)
